US12590099B2, “Inhibitors of histone deacetylase useful for the treatment or prevention of HIV infection” (Merck Sharp & Dohme LLC, priority 2018, dated 2026)

What was measured:
Type in all cases: biochemical
Recombinant human HDAC1 = biological target: T1, Recombinant human HDAC1 (Homo sapiens, UniProt Q13547); experiment: Human HDAC enzyme inhibitor Fluor-de-Lys assay, HDAC1
T1 construct: FLAG (C); made in house
How it was run: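 Fluor-de-Lys format at room temperature (23° C.): compounds titrated 10-point, 1:3, preincubated with HDAC before substrate addition; HDAC1 run at 0.3 nM enzyme with 20 μM BML-KI104. Developer with excess HDAC inhibitor ends the reaction, and trypsin-liberated AMC fluorescence is the read-out.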

HDAC6 = biological target: T2, HDAC6 (Homo sapiens, UniProt Q9UBN7); experiment: Human HDAC enzyme inhibitor Fluor-de-Lys assay, HDAC6
T2 sequence (Q9UBN7 1-1215): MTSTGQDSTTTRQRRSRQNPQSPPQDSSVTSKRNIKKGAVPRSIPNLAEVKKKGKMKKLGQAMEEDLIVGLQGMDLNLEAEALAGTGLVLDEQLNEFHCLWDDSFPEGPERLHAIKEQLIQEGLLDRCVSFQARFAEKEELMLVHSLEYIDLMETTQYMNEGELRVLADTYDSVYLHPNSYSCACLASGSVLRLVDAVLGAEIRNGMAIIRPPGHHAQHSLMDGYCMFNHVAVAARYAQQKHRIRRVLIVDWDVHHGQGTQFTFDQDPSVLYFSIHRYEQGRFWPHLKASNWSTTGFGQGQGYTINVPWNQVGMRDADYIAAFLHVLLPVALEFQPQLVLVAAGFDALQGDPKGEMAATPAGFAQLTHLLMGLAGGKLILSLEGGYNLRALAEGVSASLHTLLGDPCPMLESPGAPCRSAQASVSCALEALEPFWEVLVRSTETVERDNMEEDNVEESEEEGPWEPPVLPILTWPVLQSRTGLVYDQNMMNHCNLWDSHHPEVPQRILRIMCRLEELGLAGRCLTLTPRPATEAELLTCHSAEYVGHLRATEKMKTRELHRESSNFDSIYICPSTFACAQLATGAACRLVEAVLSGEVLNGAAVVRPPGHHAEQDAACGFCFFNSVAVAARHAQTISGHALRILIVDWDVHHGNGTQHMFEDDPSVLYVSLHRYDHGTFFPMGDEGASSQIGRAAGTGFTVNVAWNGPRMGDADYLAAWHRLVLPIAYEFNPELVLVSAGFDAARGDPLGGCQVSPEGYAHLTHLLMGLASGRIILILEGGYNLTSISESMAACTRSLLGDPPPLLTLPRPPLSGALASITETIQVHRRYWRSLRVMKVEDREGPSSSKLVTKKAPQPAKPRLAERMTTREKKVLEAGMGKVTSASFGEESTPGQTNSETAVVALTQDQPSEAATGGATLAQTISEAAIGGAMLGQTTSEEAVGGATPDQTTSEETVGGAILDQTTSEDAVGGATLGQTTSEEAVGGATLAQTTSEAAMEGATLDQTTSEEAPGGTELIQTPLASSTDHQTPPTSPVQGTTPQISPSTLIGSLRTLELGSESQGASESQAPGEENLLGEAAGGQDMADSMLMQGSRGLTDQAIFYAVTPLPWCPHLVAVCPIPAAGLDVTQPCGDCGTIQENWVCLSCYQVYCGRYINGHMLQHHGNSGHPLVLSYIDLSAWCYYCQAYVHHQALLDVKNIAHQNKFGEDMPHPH

Recombinant human HDAC2 = biological target: T3, Recombinant human HDAC2 (Homo sapiens, UniProt Q92769); experiment: Human HDAC enzyme inhibitor Fluor-de-Lys assay, HDAC2
T3 construct: Full length human HDAC2-FLAG was expressed in baculovirus infected Sf9 cells; FLAG (C); made in house; host or cells: Sf9 (baculovirus)
T3 sequence (Q92769 whole entry): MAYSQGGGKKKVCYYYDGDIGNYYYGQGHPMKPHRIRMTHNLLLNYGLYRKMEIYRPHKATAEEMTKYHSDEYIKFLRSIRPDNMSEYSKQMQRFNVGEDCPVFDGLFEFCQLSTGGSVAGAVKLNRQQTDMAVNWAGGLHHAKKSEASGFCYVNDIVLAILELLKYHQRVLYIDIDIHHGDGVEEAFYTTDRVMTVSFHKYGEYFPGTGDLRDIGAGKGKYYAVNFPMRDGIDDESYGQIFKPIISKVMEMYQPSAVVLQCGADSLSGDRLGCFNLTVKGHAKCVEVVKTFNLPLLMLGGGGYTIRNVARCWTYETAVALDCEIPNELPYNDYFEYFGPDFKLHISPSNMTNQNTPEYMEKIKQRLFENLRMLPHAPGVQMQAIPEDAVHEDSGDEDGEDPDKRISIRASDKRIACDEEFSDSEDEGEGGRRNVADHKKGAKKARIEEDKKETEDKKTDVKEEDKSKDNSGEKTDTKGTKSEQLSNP
How it was run: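 Fluor-de-Lys format at room temperature (23° C.): compounds titrated 10-point, 1:3, preincubated with HDAC before substrate addition. Developer with excess HDAC inhibitor ends the reaction, and trypsin-liberated AMC fluorescence is the read-out.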

T1 sequence (Q13547 whole entry): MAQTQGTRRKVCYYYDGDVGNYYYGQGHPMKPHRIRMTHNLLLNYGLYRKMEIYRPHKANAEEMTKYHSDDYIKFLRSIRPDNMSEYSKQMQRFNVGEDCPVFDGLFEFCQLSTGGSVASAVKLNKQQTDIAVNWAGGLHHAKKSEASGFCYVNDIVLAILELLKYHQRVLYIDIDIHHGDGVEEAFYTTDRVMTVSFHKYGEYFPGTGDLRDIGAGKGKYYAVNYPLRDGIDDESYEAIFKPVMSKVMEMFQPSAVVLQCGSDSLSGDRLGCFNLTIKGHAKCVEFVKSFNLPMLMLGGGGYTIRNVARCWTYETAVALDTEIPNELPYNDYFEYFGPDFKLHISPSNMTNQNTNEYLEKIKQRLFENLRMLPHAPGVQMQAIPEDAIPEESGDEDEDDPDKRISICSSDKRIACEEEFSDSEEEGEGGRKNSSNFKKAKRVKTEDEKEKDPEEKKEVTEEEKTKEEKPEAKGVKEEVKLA

Structure (SMILES) | IC50 (Recombinant human HDAC1) | IC50 (HDAC6) | IC50 (Recombinant human HDAC2)
CCC(=O)CCCCC[C@H](NC(=O)[C@H]1CC12CCN(C)CC2)c1ncc(-c2ccc3nc(C4CC4)oc3c2)[nH]1 [Compound 160] | 1.89 nM | 10400 nM | 12.1 nM
CCC(=O)CCCCC[C@H](NC(=O)[C@H]1CC12CCN(CC)CC2)c1ncc(-c2ccc(-c3cnc(C4CC4)nc3)cc2)o1 [Compound 161] | 54.5 nM | 11700 nM | 163 nM
CCC(=O)CCCCC[C@H](NC(=O)[C@H]1CC12CCN(CC)CC2)c1ncc(-c2ccc3c(=O)n(CC)ccc3c2)o1 [Compound 162] | 3.24 nM | 6530 nM | 9.5 nM
CCN1CCC2(CC1)C[C@@H]2C(=O)N[C@@H](CCCCCC(=O)CC1CC1)c1ncc(-c2cc3ccc(C)nc3cc2OC)[nH]1 [Compound 165] | 1.18 nM | 11900 nM | 8 nM
CCN1CCC2(CC1)C[C@@H]2C(=O)N[C@@H](CCCCCC(=O)CC1CC1)c1ncc(-c2cc3ccc(C)nc3cc2OC)o1 [Compound 167] | 0.97 nM | 3320 nM | 8 nM
CCC(=O)CCCCC[C@H](NC(=O)[C@H]1CC12CCN(C)CC2)c1ncc(-c2cc(OC)c3ccccc3n2)[nH]1 [Compound 170] | 5.79 nM | 923 nM | 16.9 nM
CCC(=O)CCCCC[C@H](NC(=O)[C@H]1CC12CCN(C)CC2)c1ncc(-c2ccc3nc(C)cc(Cl)c3c2)[nH]1 [Compound 174] | 0.55 nM | 951 nM | 2.1 nM
CCC(=O)CCCCC[C@H](N)c1ncc(-c2ccc3nc(C)ccc3c2)[nH]1 [Compound 178] | 107 nM | > 45000 nM | 386 nM
C=CCN1CCC2(CC1)C[C@@H]2C(=O)N[C@@H](CCCCCC(=O)CC)c1ncc(-c2ccc3c(c2)C2CCC3N2CC=C)[nH]1 (stereo partly drawn) [Compound 179, (1S)—N-{(1S)-7-oxo-1-[5-(9-prop-2-en-1-yl-1,2,3,4-tetrahydro-1,4-epiminonaphthalen-6-yl)-1H-imidazol-2-yl]nonyl}-6-prop-2-en-1-yl-6-azaspiro[2.5]octane-1-carboxamide] | 58.3 nM | 9530 nM | 380 nM
C=CCN1CCC2(CC1)C[C@@H]2C(=O)N[C@@H](CCCCCC(=O)CC)c1ncc(-c2cccc3c2C2CCC3N2CC=C)[nH]1 (stereo partly drawn) [Compound 180, (1S)—N-{(1S)-7-oxo-1-[5-(9-prop-2-en-1-yl-1,2,3,4-tetrahydro-1,4-epiminonaphthalen-5-yl)-1H-imidazol-2-yl]nonyl}-6-prop-2-en-1-yl-6-azaspiro[2.5]octane-1-carboxamide] | 5.4 nM | 2120 nM | 29.6 nM
CCN1CCC2(CC1)C[C@@H]2C(=O)N[C@@H](CCCCCC(=O)CC1CCC1)c1ncc(-c2cc3ccc(C)nc3cc2OC)o1 [Compound 184] | 9.51 nM | 9280 nM | 38.8 nM
COc1cc2nc(C)ccc2cc1-c1cnc([C@H](CCCCCC(=O)CC2CCC2)NC(=O)[C@H]2CC23CCN(C)CC3)o1 [Compound 185] | 15.1 nM | 36400 nM | 38 nM
CCC(=O)CCCCC[C@H](NC(=O)[C@H]1CC12CCN(CC)CC2)c1ncc(-c2cc3nn(C)cc3cc2OC)o1 [Compound 189] | 7.33 nM | 159 nM | 30 nM
CCC(=O)CCCCC[C@H](NC(=O)[C@H]1CC12CCN(C)CC2)c1nnc(-c2cc3ccc(C)nc3cc2OC)o1 [Compound 191] | 2.16 nM | 2050 nM | 5.3 nM
CCC(=O)CCCCC[C@H](NC(=O)C1=NOC2(CCN(C)CC2)C1)c1ncc(-c2cc3ccc(=O)n(C)c3cc2OC)o1 [Compound 193] | 3.01 nM | > 900 nM | 10.9 nM
COc1cc2nc(C)ccc2cc1-c1cnc([C@H](CCCCCC(=O)CC2CC2)NC(=O)[C@H]2CC23CCN(C)CC3)o1 [Compound 195, (1S)—N-{(1S)-8-cyclopropyl-1-[5-(7-methoxy-2-methylquinolin-6-yl)-1,3-oxazol-2-yl]-7-oxooctyl}-6-methyl-6-azaspiro[2.5]octane-1-carboxamide] | 0.86 nM | 21500 nM | 9.7 nM
CCC(=O)CCCCC[C@H](NC(=O)C1=NOC2(CCN(C)CC2)C1)c1ncc(-c2cc3ccc(C)nc3cc2OC)o1 [Compound 196] | 1.42 nM | 759 nM | 6 nM
CCC(=O)CCCCC[C@H](NC(=O)[C@H]1CC12CCN(C)CC2)c1ncc(-c2cc3ccc(=O)n(C)c3cc2OC)o1 [Compound 198] | 0.87 nM | 426 nM | 3.8 nM
CCC(=O)CCCCC[C@H](NC(=O)[C@H]1CC12CCN(CC1CC1)CC2)c1ncc(-c2cc3ccc(=O)n(C)c3cc2OC)o1 [Compound 199] | 0.35 nM | 216 nM | 1.3 nM
CCN1CCC2(CC1)C[C@@H]2C(=O)N[C@@H](CCCCCC(=O)CC1CC1)c1ncc(-c2ccc(F)cc2)[nH]1 [Compound 201] | 7.18 nM | 35800 nM | 32.6 nM
CCC(=O)CCCCC[C@H](NC(=O)C1=NOC2(CCN(CC)CC2)C1)c1ncc(-c2cc3ccc(C)nc3cc2OC)o1 [Compound 204] | 0.34 nM | 592 nM | 3.9 nM
CCC(=O)CCCCC[C@H](NC(=O)C1=NOC2(CCN(CC)CC2)C1)c1ncc(-c2cc3ccc(C)nc3cc2OC)[nH]1 [Compound 207] | 0.24 nM | 1350 nM | 2.1 nM
CCC(=O)CCCCC[C@H](N)c1ncc(-c2cc3ccc(C)nc3cc2OC)[nH]1 [Compound 209, (S)-9-amino-9-(5-(7-methoxy-2-methylquinolin-6-yl)-1H-imidazol-2-yl)nonan-3-one] | 52.9 nM | > 900 nM | 151 nM
CCC(=O)CCCCC[C@H](NC(=O)[C@H]1CC12CCN(CC)CC2)c1nc(-c2cc3ccc(C)nc3cc2OC)cn1COC(=O)C(C)(C)C [Compound 215, {2-[(1S)-1-({[(1S)-6-ethyl-6-azaspiro[2.5]oct-1-yl]carbonyl}amino)-7-oxononyl]-4-(7-methoxy-2-methylquinolin-6-yl)-1H-imidazol-1-yl}methyl 2,2-dimethylpropanoate] | 0.89 nM | > 900 nM | 4 nM
CCC(=O)CCCCC[C@H](NC(=O)C1=NOC2(CCN(C)CC2)C1)c1ncc(-c2cc3ccncc3nc2OC)o1 [Compound 216] | 7.11 nM | 786 nM | 34.8 nM
CCC(=O)CCCCC[C@H](NCCN(C)C)c1ncc(-c2cc3ccc(C)nc3cc2OC)[nH]1 [Compound 217, (9S)-9-{[2-(dimethylamino)ethyl]amino}-9-[5-(7-methoxy-2-methylquinolin-6-yl)-1H-imidazol-2-yl]nonan-3-one] | 4.56 nM | > 900 nM | 50.3 nM
CCC(=O)CCCCC[C@H](NC(=O)C1=NOC2(CCN(CC3CC3)CC2)C1)c1ncc(-c2cc3ccc(C)nc3cc2OC)[nH]1 [Compound 219] | 0.1 nM | > 900 nM | 1.8 nM
CCC(=O)CCCCC[C@H](NC(=O)[C@H]1CC12CCN(C)CC2)c1ncc(-c2cc(OC)ncc2F)o1 [Compound 220] | 29.9 nM | > 900 nM | 251 nM
CCC(=O)CCCCC[C@H](NC(=O)C1=NOC2(CCN(C)CC2)C1)c1ncc(-c2cc3ccc(C)nc3cc2F)o1 [Compound 221] | 8.62 nM | > 900 nM | 54.5 nM
